What all share (type): functional
Test [1] deals with Escherichia coli. Put plainly: Antibacterial activity against CTX-M-14 ESBL producing Escherichia coli assessed as resistant isolates by disk diffusion method.
In test [2] the test system is Escherichia coli. Put plainly: Antibacterial activity against CTX-M-15 and SHV-27 ESBL producing Escherichia coli assessed as resistant isolates by disk diffusion method.
For test [3], the system named is Enterobacter cloacae. Put plainly: Antibacterial activity against SHV-12 ESBL producing Enterobacter cloacae assessed as resistant isolates by disk diffusion method.
The subject of test [4] is Klebsiella pneumoniae. Put plainly: Antibacterial activity against CTX-M-14 ESBL producing Klebsiella pneumoniae assessed as resistant isolates by disk diffusion method.
Test [5] has as its system Enterobacter cloacae. Put plainly: Antibacterial activity against CTX-M-15 ESBL producing Enterobacter cloacae assessed as resistant isolates by disk diffusion method.
Test [6] has as its system Escherichia coli. Put plainly: Antibacterial activity against CTX-M-15 ESBL producing Escherichia coli assessed as resistant isolates by disk diffusion method.
In test [7] the test system is Klebsiella pneumoniae. Put plainly: Antibacterial activity against CTX-M-15 ESBL producing Klebsiella pneumoniae assessed as resistant isolates by disk diffusion method.
Test [8] deals with Escherichia coli. Put plainly: Antibacterial activity against CTX-M-15 and SHV-12 ESBL producing Escherichia coli assessed as resistant isolates by disk diffusion method.
Test [9] concerns Escherichia coli. Put plainly: Antibacterial activity against SHV-12 ESBL producing Escherichia coli assessed as resistant isolates by disk diffusion method.
In a further test the test system is Morganella morganii. Put plainly: Antibacterial activity against CTX-M-14 ESBL producing Morganella morganii assessed as resistant isolates by disk diffusion method.
The next test relates to Proteus mirabilis. Put plainly: Antibacterial activity against CTX-M-14 ESBL producing Proteus mirabilis assessed as resistant isolates by disk diffusion method.
The test system of test [10] is Klebsiella pneumoniae. Put plainly: Antibacterial activity against SHV-12 ESBL producing Klebsiella pneumoniae assessed as resistant isolates by disk diffusion method.

In the case of `NCC[C@H](O)C(=O)N[C@@H]1C[C@H](N)[C@@H](O[C@H]2O[C@H](CN)[C@@H](O)[C@H](O)[C@H]2O)[C@H](O)[C@H]1O[C@H]1O[C@H](CO)[C@@H](O)[C@H](N)[C@H]1O` [AMIKACIN], the Activity with Escherichia coli [1] amounted to 0%; in the test on Escherichia coli [2], 0%; with Enterobacter cloacae [3], 78%; with Klebsiella pneumoniae [4], 0%; with Enterobacter cloacae [5], 0%; with Escherichia coli [6] it was 17%. Besides, the Activity was determined as 20% with Klebsiella pneumoniae [7]; 0% in the test with Escherichia coli [8]; 100% in the test on Escherichia coli [9]; 100% with Morganella morganii; 0% in the test on Proteus mirabilis; 50% in the test with Klebsiella pneumoniae [10].

With `O=C(N[C@H](CO)[C@H](O)c1ccc([N+](=O)[O-])cc1)C(Cl)Cl` [CHLORAMPHENICOL], the Activity with Escherichia coli [1] is 82%; in the test with Escherichia coli [2] it was 100%; in the test with Enterobacter cloacae [3], 89%; in the test on Klebsiella pneumoniae [4], 67%; with Enterobacter cloacae [5] it was 100%; in the test with Escherichia coli [6], 73%. In addition, the Activity with Klebsiella pneumoniae [7] is listed as 40%; in the test with Escherichia coli [8] it was 100%; with Escherichia coli [9], 100%; in the test with Morganella morganii it was 100%; in the test with Proteus mirabilis, 100%; with Klebsiella pneumoniae [10], 83%.

Turning to `O=C(O)c1cn(C2CC2)c2cc(N3CCNCC3)c(F)cc2c1=O` [CIPROFLOXACIN], the Activity amounted to 100% with Escherichia coli [1]; 100% with Escherichia coli [2]; 33% in the test with Klebsiella pneumoniae [4]; 98% in the test on Escherichia coli [6]; 100% in the test on Escherichia coli [8]; 0% in the test on Escherichia coli [9]. Also, the Activity is given as 100% in the test on Morganella morganii, 100% in the test with Proteus mirabilis and 67% with Klebsiella pneumoniae [10].

For `CCn1cc(C(=O)O)c(=O)c2ccc(C)nc21` [NALIDIXIC ACID], the Activity with Escherichia coli [1] is recorded as 100%; with Escherichia coli [2], 0%; with Enterobacter cloacae [3] it was 100%; with Klebsiella pneumoniae [4], 67%; in the test with Enterobacter cloacae [5] it was 100%; in the test on Escherichia coli [6], 98%. Further, the Activity with Klebsiella pneumoniae [7] was 93%; in the test with Escherichia coli [8], 100%; in the test on Escherichia coli [9], 100%; in the test on Morganella morganii, 100%; in the test with Proteus mirabilis, 100%; in the test on Klebsiella pneumoniae [10], 83%.

For the compound `CCn1cc(C(=O)O)c(=O)c2cc(F)c(N3CCNCC3)cc21` [NORFLOXACIN], the Activity in the test on Escherichia coli [1] was 100%; in the test with Escherichia coli [2], 100%; in the test on Enterobacter cloacae [3], 89%; with Klebsiella pneumoniae [4], 33%; in the test with Enterobacter cloacae [5] it was 100%; in the test with Escherichia coli [6], 98%. The Activity in the test on Klebsiella pneumoniae [7] is 96%; in the test on Escherichia coli [8] it was 100%; in the test on Escherichia coli [9], 100%; with Morganella morganii, 100%; in the test with Proteus mirabilis it was 100%; in the test on Klebsiella pneumoniae [10], 67%.

Take `CN(C)[C@@H]1C(O)=C(C(N)=O)C(=O)[C@@]2(O)C(O)=C3C(=O)c4c(O)cccc4[C@@](C)(O)[C@H]3C[C@@H]12` [TETRACYCLINE]: the Activity is 82% in the test with Escherichia coli [1]; 0% with Escherichia coli [2]; 89% in the test on Enterobacter cloacae [3]; 67% in the test with Klebsiella pneumoniae [4]; 100% in the test with Enterobacter cloacae [5]; 88% with Escherichia coli [6]. The Activity was 84% in the test with Klebsiella pneumoniae [7]; 100% in the test with Escherichia coli [8]; 100% in the test on Escherichia coli [9]; 100% in the test on Morganella morganii; 100% in the test with Proteus mirabilis; 50% in the test on Klebsiella pneumoniae [10].

As to `NC[C@H]1O[C@H](O[C@H]2[C@H](O)[C@@H](O[C@H]3O[C@H](CO)[C@@H](O)[C@H](N)[C@H]3O)[C@H](N)C[C@@H]2N)[C@H](N)C[C@@H]1O` [TOBRAMYCIN], the Activity came to 100% in the test with Escherichia coli [1]; 100% with Escherichia coli [2]; 89% with Enterobacter cloacae [3]; 67% in the test with Klebsiella pneumoniae [4]; 100% in the test with Enterobacter cloacae [5]; 97% in the test with Escherichia coli [6]. The Activity in the test on Klebsiella pneumoniae [7] amounted to 96%; in the test with Escherichia coli [8], 100%; with Escherichia coli [9] it was 100%; with Morganella morganii, 100%; in the test on Proteus mirabilis, 0%; with Klebsiella pneumoniae [10], 83%.

As for `COc1cc(Cc2cnc(N)nc2N)cc(OC)c1OC` [TRIMETHOPRIM], the Activity with Escherichia coli [1] stood at 100%; with Escherichia coli [2], 100%; with Enterobacter cloacae [3], 89%; with Klebsiella pneumoniae [4], 100%; with Enterobacter cloacae [5], 100%; with Escherichia coli [6] it was 95%. The Activity in the test with Klebsiella pneumoniae [7], in the test with Escherichia coli [8], in the test on Escherichia coli [9], in the test with Morganella morganii, in the test on Proteus mirabilis and in the test with Klebsiella pneumoniae [10] was 100% each time.

On to GENTAMICIN, for which the Activity with Escherichia coli [1] was determined as 100%; in the test with Escherichia coli [2], 100%; with Enterobacter cloacae [3] it was 12%; with Klebsiella pneumoniae [4], 67%; with Enterobacter cloacae [5], 100%; with Escherichia coli [6], 83%. Further, the Activity worked out at 89% in the test on Klebsiella pneumoniae [7]; 100% in the test with Escherichia coli [8]; 0% in the test on Escherichia coli [9]; 100% in the test on Morganella morganii; 0% in the test with Proteus mirabilis; 33% in the test on Klebsiella pneumoniae [10].

For the origin of these results see ChEMBL document CHEMBL1649259, “High prevalence of CTX-M-type beta-lactamases among clinical isolates of Enterobacteriaceae in Bamako, Mali” (2009).
